According to patent US4065619A, “7-(α-Sulfoacylamido)cephalosporins” (Takeda Chemical Industries, Ltd., priority 1971, dated 1977):
Converted amounts (≈) assume the structure as drawn. Values belong to the compound of their own block, whether it stands above or below them.

Legend:
Type in all cases: cell-based
[1] = test system: Pseudomonas aeruginosa (Pd 12); assay: Minimum inhibitory concentration, Pseudomonas aeruginosa (Pd 12)
[2] = test system: Pseudomonas aeruginosa (Pd 1); assay: Minimum inhibitory concentration, Pseudomonas aeruginosa (Pd 1)
[3] = test system: Pseudomonas aeruginosa (NCTC 10490); assay: Minimum inhibitory concentration, Pseudomonas aeruginosa (NCTC 10490); details: NCTC10490
Pseudomonas aeruginosa = assay: Minimum inhibitory concentration, Pseudomonas aeruginosa (strain not given)
[4] = test system: Staphylococcus aureus (209P); assay: Minimum inhibitory concentration, Staphylococcus aureus 209P
[5] = test system: Pseudomonas aeruginosa (T-3); assay: Minimum inhibitory concentration, Pseudomonas aeruginosa (T-3)
[6] = test system: Pseudomonas aeruginosa (Pd 13); assay: Minimum inhibitory concentration, Pseudomonas aeruginosa (Pd 13)
[7] = test system: Staphylococcus aureus (penicillin G resistant); assay: Minimum inhibitory concentration, Staphylococcus aureus (penicillin G resistant)
[8] = test system: Staphylococcus aureus (No. 87, penicillin G resistant); assay: Minimum inhibitory concentration, Staphylococcus aureus (No. 87, penicillin G resistant)
[9] = test system: Pseudomonas aeruginosa (10490); assay: Minimum inhibitory concentration, Pseudomonas aeruginosa (10490)
[10] = test system: Pseudomonas aeruginosa (NCTC); assay: Minimum inhibitory concentration, Pseudomonas aeruginosa (NCTC)

MIC [1]: 0.5 µg/mL (≈ 0.939 µM)
Structure (SMILES): NC(=O)c1cc[n+](CC2=C(C(=O)[O-])N3C(=O)[C@@H](NC(=O)C(c4ccccc4)S(=O)(=O)O)[C@H]3SC2)cc1 (some centres unmarked) [drawing 13]

MIC (Pseudomonas aeruginosa): 5 µg/mL | MIC [4]: 5 µg/mL
Structure (SMILES): Nc1ccc(C(C(=O)NC2C(=O)N3C(C(=O)[O-])=C(C[n+]4ccccc4)CSC23)S(=O)(=O)O)cc1 (stereo not drawn) [Example 9, sodium 7-[α-sulfo-α-(p-aminophenyl)acctamido]-3-(pyridiniummethyl)ceph-3-em-4-carboxylate]

MIC [1]: 5 µg/mL (≈ 9.37 µM)
Structure (SMILES): O=C([O-])C1=C(C[n+]2cccc(C(=O)O)c2)CS[C@@H]2[C@H](NC(=O)C(c3ccccc3)S(=O)(=O)O)C(=O)N12 (some centres unmarked)

MIC [1]: 10 µg/mL (≈ 20.4 µM) | MIC [5]: 5 µg/mL (≈ 10.2 µM) | MIC [2]: 2 µg/mL (≈ 4.09 µM) | MIC [6]: 5 µg/mL (≈ 10.2 µM) | MIC [4]: 1 µg/mL (≈ 2.04 µM) | MIC [3]: 1 µg/mL (≈ 2.04 µM) | MIC [7]: 2 µg/mL (≈ 4.09 µM)
Structure (SMILES): O=C([O-])C1=C(C[n+]2ccccc2)CS[C@@H]2[C@H](NC(=O)C(c3ccccc3)S(=O)(=O)O)C(=O)N12 (some centres unmarked) [Example 1]

MIC [1]: 1 µg/mL (≈ 1.88 µM)
Structure (SMILES): NC(=O)c1ccc[n+](CC2=C(C(=O)[O-])N3C(=O)[C@@H](NC(=O)C(c4ccccc4)S(=O)(=O)O)[C@H]3SC2)c1 (some centres unmarked)

MIC [1]: 10 µg/mL (≈ 18.3 µM)
Structure (SMILES): NNC(=O)c1cc[n+](CC2=C(C(=O)[O-])N3C(=O)[C@@H](NC(=O)C(c4ccccc4)S(=O)(=O)O)[C@H]3SC2)cc1 (some centres unmarked)

MIC [2]: 1 µg/mL | MIC [10]: 0.5 µg/mL
Structure (SMILES): NC(=O)c1cc[n+](CC2=C(C(=O)[O-])N3C(=O)[C@@H](NC(=O)C(c4ccccc4)S(=O)(=O)O)[C@H]3SC2)cc1 (stereo partly drawn) [Example 3, sodium N-[7-(α-sulfophenylacetamido)ceph-3-em-3-ylmethyl]-4'-carbamoyl-pyridinium-4-carboxylate]

Continued, compound first:

Structure (SMILES): O=C([O-])C1=C(C[n+]2cccc3ccccc32)CS[C@@H]2[C@H](NC(=O)C(c3ccccc3)S(=O)(=O)O)C(=O)N12 (some centres unmarked)
MIC [1]: 5 µg/mL (≈ 9.27 µM)

Structure (SMILES): Cc1cccc[n+]1CC1=C(C(=O)[O-])N2C(=O)[C@@H](NC(=O)C(c3ccccc3)S(=O)(=O)O)[C@H]2SC1 (stereo partly drawn) [Example 5, sodium N-[7-(α-sulfophenylacetamido)-ceph-3-em-3-ylmethyl]-2'-methylpyridinium-4-carboxylate]
MIC [2]: 3 µg/mL | MIC [3]: 2 µg/mL

Structure (SMILES): O=C([O-])C1=C(C[n+]2ccc3ccccc3c2)CS[C@@H]2[C@H](NC(=O)C(c3ccccc3)S(=O)(=O)O)C(=O)N12 (some centres unmarked)
MIC [1]: 5 µg/mL (≈ 9.27 µM)

Structure (SMILES): CCCCC(C(=O)NC1C(=O)N2C(C(=O)[O-])=C(C[n+]3ccccc3)CSC12)S(=O)(=O)O (centres unmarked) [Example 7]
MIC [8]: 2 µg/mL (≈ 4.26 µM) | MIC [9]: 2 µg/mL (≈ 4.26 µM)

Structure (SMILES): O=C([O-])C1=C(C[n+]2ccccc2)CS[C@@H]2[C@H](NC(=O)C(c3ccsc3)S(=O)(=O)O)C(=O)N12 (some centres unmarked) [Example 13]
MIC [2]: 2 µg/mL (≈ 4.04 µM) | MIC [3]: 1 µg/mL (≈ 2.02 µM)
